From patent publication US7074774B2, “Use of N-acetyl-D-glucosamine in the manufacture of pharmaceutical useful for treating cardio-cerebrovascular anoxemia” (Third Military Medical University Chinese People's …, priority 2001, dated 2006)

Columns and labels:
[1] = tested on: rat with cerebral ischemia and Re-Infusion; experiment: Protecting effect in rat with cerebral ischemia and re-infusion (four arteries ligation model); type: in vivo, Wistar rat
Source text: The following experimental example is used to illustrate the effect of resisting cardiac and cerebral ischemia as well as oxygen-deficiency, and the low toxicity of the compound of the present invention (the compound of formula (I)). • I. The protecting effect of N-acetyl-D-glucosamine in rat with cerebral ischemia and Re-Infusion • 1. Animal: Wistar rat provided by the 3rd Military Medical University P.R. China. Half of them are male, the other are female. • 2. Method for making model: the model is made by four arteries ligation method to cause the rat to be cerebral ischemia, in which for each rat, the vertebra artery in the vertebra foramen of the second cervical vertebra is blocked by hot coagulation with electric coagulator, then separate the two common carotid artery in the front of it, after that, remain the surgical thread jacket, sewing up. Next day, after the animal is recovered from anesthesia, open the sewing thread in the front of the animal, clamp the two common carotid artery with artery clip, it needs 20 min. in total. […] Grouping: the animals are divided into four groups (eight animals in each group) […]
Astragalus Group: that is, before the animal is treated, administrating Astragalus injection solution by abdominal injection.
Astragalus+N-acetyl-D-glucosanime Group: that is, 30 min before clamping, administrating a mixture injection solution of 0.25 g/kg of N-acetyl-D-glucosanime and 2 g/kg of Astragalus by abdominal injection.
The control Group: not administrating any medicament, but injecting physiological salt solution with the same volume.
The animals in each group are all fed in standard. In the process of operation, please pay attention to asepsis.
Abnormal ratio of the water content in the brain (by dry-wet weight method):
Scoring the symptoms of nerve behavior • 0 score: no symptom of nerve defect, moving normally • 1 score: cannot extend the front claw at the opposite side • 2 score: when walking, the body rotates toward the hemiplegia side • 3 score: the body collapse down toward the hemiplegia side • 4 score: not capable of walking spontaneously, losing consciousness 5.

[2] = tested on: mice in oxygen deficiency at normal pressure; experiment: Resistance to oxygen-deficiency: model of oxygen deficiency at normal pressure; type: in vivo, mice of Kunming species
Description: Experimental research of the resistance to oxygen-deficiency of N-acetyl-Dglucosanime 1. Model of Oxygen Deficiency at Normal Pressure:
The mice were put into a sealed glass desiccator with a volumn of 200 ml and charged with 20 g of sodium lime to observe the survival time.
The mice of Kunming species, provided by the 3rd Military Medical University of P. R. China
Two groups had 24 mice in total, in the experimental group, two weeks before experiment, administrating N-acetyl-D-glucosanime by stomach infusion with a dosage of 0.05 g/kg, in the control group, they were normally fed.

[3] = in vivo
Source text: N-acetyl-D-glucosanime can raise the resistance to oxygen deficiency of the small mice. • III. Toxicological test of the compound of formula (I), including: • 1. acute toxicity test: including tests of administrating medicine by oral, intravenous injection and maximum limit amount for administration; • 2. Ames test; • 3. micronucleus test of bone marrow cell of mouse; • 4. abnormal sexual test for the sperm of mouse; • 5. abnormal aberrance test for the chromosin of mouse's testis; • 6. chronic lethal test; • 7. subchronic toxicity (feed for 90 days) test; • 8. traditional aberrance-inducing test;

In the case of `CC(=O)N[C@H]1C(O)O[C@H](CO)[C@@H](O)[C@@H]1O` (stereo partly drawn) [N-acetyl-D-glucosanime, N-acetyl-D-glucosamine], the “cerebral edema degree caused by cerebral ischemia and re-infusion” value ([1]; conclusion, dosage 0.025 g/kg) is reported as “decreased obviously”, the corresponding nerve symptoms ([1]; conclusion, dosage 0.025 g/kg) is reported as “released” and the survival rate ([1]; conclusion, dosage 0.025 g/kg) is reported as “raised obviously”. The “Water content of brain” value ([1]; dry-wet weight method, medicament before clamping (N-acetyl-D-glucosanime 0.25 g/kg, Astragalus 2 g/kg in mixture), control 70.84%) was 66.2%, the Survival ([1]; four arteries ligation, 20 min clamping, medicament before clamping (N-acetyl-D-glucosanime 0.25 g/kg, Astragalus 2 g/kg in mixture), control 62.5%) was 87.5% and the “Abnormal ratio (symptoms of nerve behavior)” value ([1]; medicament before clamping (N-acetyl-D-glucosanime 0.25 g/kg, Astragalus 2 g/kg in mixture), control 75%) was 50%. For the same molecule, the Average survival period ([2]; 0.05 g/kg by stomach infusion, two weeks before experiment, sealed 200 ml desiccator with 20 g sodium lime, versus control group) was “much longer than that of the control group”, the “resistance to oxygen deficiency of the small mice” value ([2]; conclusion) was “can raise” and the “acute test dosage relative to the injection dosage for human being” value [3] was 300 times. For the same molecule, the “dosage taken at which acute toxicosis reaction had not appeared” value [3] was “more than 2 g/kg” and the “maximum dosage with no toxicosis reaction” value ([3]; 4 weeks) was 1 g/kg.
